According to BindingDB's records for doi:10.1021/jm300752n (Emory University, 2012):

test: Inhibition of P300 CH1 domain-mediated HIF1 transcriptional activity in human LN229-V6R cells assessed as reduction in luciferase activity incubated for 1 hr under normoxia followed by 24 hrs under hypoxia by reporter gene assay

IC50, 5 µM:
CC(C)CN(Cc1ccc2c(c1)C=CC(C)(C)O2)S(=O)(=O)c1nccs1, CC(C)CN(Cc1ccc2c(c1)C=CC(C)(C)O2)S(=O)(=O)c1nccn1C, COc1cc(CN(C(C)C)S(=O)(=O)c2ccccn2)cc2c1OC(C)(C)C=C2, CC(C)CN(Cc1ccc2c(c1)C=CC(C)(C)O2)S(=O)(=O)c1ccccn1
